Data taken from article PMC5787524, “Discovery of a FLT3 inhibitor LDD1937 as an anti-leukemic agent for acute myeloid leukemia” (Oncotarget, 2017).
Values joined by “and” are separate entries in the source; they are usually repeats but may differ in a detail not shown here. Identical values can stand only once. Like-named read-outs stand apart in the source and are kept apart here.

Tests used:
[1] = target: JAK2 (Homo sapiens, UniProt O60674); test: In vitro JAK2 kinase assay (HTRF); format: biochemical; settings: mean ± S.D.
Sequence of JAK2 (O60674 whole entry, species assumed, the tested form may be a part): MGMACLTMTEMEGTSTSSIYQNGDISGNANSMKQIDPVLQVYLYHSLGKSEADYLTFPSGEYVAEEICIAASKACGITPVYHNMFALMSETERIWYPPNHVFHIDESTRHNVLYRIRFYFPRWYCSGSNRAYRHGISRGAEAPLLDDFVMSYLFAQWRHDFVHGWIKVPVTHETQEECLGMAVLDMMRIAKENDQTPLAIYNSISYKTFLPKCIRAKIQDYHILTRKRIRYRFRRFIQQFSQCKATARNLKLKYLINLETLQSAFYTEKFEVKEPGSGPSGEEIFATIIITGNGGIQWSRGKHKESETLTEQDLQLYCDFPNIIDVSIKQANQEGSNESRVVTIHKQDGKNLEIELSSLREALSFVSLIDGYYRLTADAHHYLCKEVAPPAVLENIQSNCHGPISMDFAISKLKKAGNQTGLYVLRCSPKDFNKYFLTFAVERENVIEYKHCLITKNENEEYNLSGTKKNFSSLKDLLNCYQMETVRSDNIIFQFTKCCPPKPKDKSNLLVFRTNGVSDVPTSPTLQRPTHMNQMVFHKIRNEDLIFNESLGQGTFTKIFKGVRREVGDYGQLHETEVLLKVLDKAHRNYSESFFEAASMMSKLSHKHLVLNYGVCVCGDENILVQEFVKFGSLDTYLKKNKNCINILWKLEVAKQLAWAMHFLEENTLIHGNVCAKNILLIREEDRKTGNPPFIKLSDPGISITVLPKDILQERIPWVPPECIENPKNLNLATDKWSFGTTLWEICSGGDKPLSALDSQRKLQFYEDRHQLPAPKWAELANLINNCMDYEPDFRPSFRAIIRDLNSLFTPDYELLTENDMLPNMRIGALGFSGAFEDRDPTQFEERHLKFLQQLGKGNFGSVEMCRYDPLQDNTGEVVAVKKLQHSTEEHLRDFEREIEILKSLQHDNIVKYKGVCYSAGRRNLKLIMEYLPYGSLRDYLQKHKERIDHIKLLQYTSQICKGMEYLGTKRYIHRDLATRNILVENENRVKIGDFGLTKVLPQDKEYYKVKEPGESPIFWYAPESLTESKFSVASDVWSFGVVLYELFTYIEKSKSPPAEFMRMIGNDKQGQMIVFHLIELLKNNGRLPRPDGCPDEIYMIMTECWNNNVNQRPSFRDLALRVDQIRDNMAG
Description: The inhibition of the FLT3 kinase activity was measured with homogeneous, time-resolved fluorescence (HTRF) assays. Recombinant proteins containing the FLT3 kinase domain were purchased from Carna biosciences (Japan). Optimal enzyme, ATP, and substrate concentrations were established with the HTRF KinEASE kit (Cisbio, France) according to the manufacturer’s instructions. The FLT3 enzymes were mixed with serially diluted compounds and peptide substrates in a kinase reaction buffer (50 mM HEPES (pH 7.0), 500 μM ATP, 0.1 mM sodium orthovanadate, 5 mM MgCl2, 1 mM DTT, 0.01% bovine serum albumin (BSA), and 0.02% NaN3). After the addition of the reagents for detection, the TR-FRET signal was measured with a Victor multilabel reader (Perkin Elmer, Waltham, MA, USA). The IC50 was calculated with nonlinear regression using Prism version 5.01 (GraphPad). JAK2, JAK3, cMET, and RET in vitro kinase assays were also carried out using the HTRF assay kit.

[2] = test system: MV-4-11 cells; test: Cell viability / growth inhibition (EZ-Cytox), MV-4-11; format: cell-based, human; settings: for GI50: Homo sapiens, MV4-11, 72 h
Description: The cultured cells were incubated at 37°C with 5% CO2. Cell viability was assessed with a tetrazolium-based assay using the EZ-Cytox Cell Viability Assay kit (DaeilLab, Korea). Briefly, 2,000 ∼ 15,000 cells were plated in 96-well flat bottom plates in 100 µl of medium. The next day, the cells were treated with compounds along with dimethyl sulfoxide (DMSO, Fisher, Waltham, MA, USA) as a negative control. […] After incubation, the optical density (OD) was measured at a wavelength of 450 nm with a Victor multilabel reader (Perkin Elmer, Waltham, MA, USA).

[3] = test system: PC-3 cells; test: Cell viability / growth inhibition (EZ-Cytox), PC-3; format: cell-based; settings: Homo sapiens, Table 2, 72 h
Description: (§1) MV-4-11 human acute myeloid leukemia cells were purchased from the American Type Culture Collection (ATCC, Rockville, MD, USA, CRL-9591), and the cells were cultured in IMDM medium (Sigma Co., St. Louis, MO, USA) supplemented with 10% fetal bovine serum, 1% penicillin/streptomycin and 4 mM L-glutamine (Life Technology, Grand Island, NY). Jurkat (human acute T lymphocytic leukemia, ATCC TIB-152) and K562 (human chronic myelogenous leukemia, ATCC CCL-243) cells were cultured in RPMI-1640 (Sigma Co.), and MCF7 (human breast adenocarcinoma, ATCC HTB-22) and PC-3 (human prostate adenocarcinoma, ATCC CRL-1435) cells were cultured in DMEM (Sigma Co.) medium supplemented with 10% fetal bovine serum and 1% penicillin/streptomycin. The cultured cells were incubated at 37°C with 5% CO2. Cell viability was assessed with a tetrazolium-based assay using the EZ-Cytox Cell Viability Assay kit (DaeilLab, Korea). Briefly, 2,000 ∼ 15,000 cells were plated in 96-well flat bottom plates in 100 µl of medium. The next day, the cells were treated with compounds along with dimethyl sulfoxide (DMSO, Fisher, Waltham, MA, USA) as a negative control. […] After incubation, the optical density (OD) was measured at a wavelength of 450 nm with a Victor multilabel reader (Perkin Elmer, Waltham, MA, USA). The IC50 was calculated with nonlinear regression using Prism version 5.01 (GraphPad, La Jolla, CA, USA).

[4] = test system: MCF-7 cells; test: Cell viability / growth inhibition (EZ-Cytox), MCF-7; format: cell-based; settings: Homo sapiens, MCF7; Table 2, 72 h
Description: as §1

[5] = test system: MV-4-11 cells; test: Cell cycle analysis by PI flow cytometry; format: cell-based, human; settings: 24 h
Description: For cell cycle analysis, cells were seeded in a 10 cm plate (2 × 10^6 cells per well) and treated with the LDD1937 compound. Then, the cells were fixed with ethanol and treated with RNase A (4 mg/mL) and stained with propidium iodide (PI) (Sigma Co). Cell cycle distribution was analyzed by flow cytometry with an Accuri C6 flow cytometer.

[6] = Pharmacokinetics in mice (intravenous and oral); format: in vivo, ICR mice; settings: for AUC: read-out: AUC (converted); for half-life: read-out: Terminal half-life
Description: The protocols for the animal studies were approved by the Institute of Laboratory Animal Resources of Dongguk University, Seoul, South Korea (IACUC-2015-055-1). Five-week-old male Imprinting Control Region (ICR) mice were purchased from the Charles River Company Korea (Orient, Seoul, South Korea). Upon arrival, the animals were randomized and housed four per cage under strictly controlled environmental conditions (22-25°C and 48-52% relative humidity) with a 12 h light/dark cycle at an intensity of 150 to 300 Lux. All mice were provided food and water ad libitum and were then maintained during this study. In the intravenous study of LDD1937, 10 mg/kg of LDD1937 (dissolved in distilled water at a concentration of 2 mg/ml) were intravenously injected into the mice through the tail vein. A blood sample of approximately 0.12 ml was collected by cardiac puncture. Additionally, in the oral study of LDD1937, 10 mg/kg of LDD1937 (dissolved in the same solution used in the intravenous study) were orally administered to the mice. The analysis of LDD1937 and LDD1940, a metabolite of LDD1937, in biological samples was done with LC-MS/MS using the Waters UPLC-XEVO TQ system (Waters Corporation, Milford, CT, USA). […]1940, and carbamazepine (an internal standard, IS) were ionized in the multiple reaction monitoring mode with an ESI interface for positive ions ([M+H]^+). The turbo ion-spray interface was operated at an ion capillary voltage of 3.0 kV with a desolvation gas flow of 650 l/h and a cone gas flow of 10 l/h at 350°C. […] Separation was done on a reverse-phase C18 column (BEH, […]; Waters, Ireland) with a mobile phase, distilled water containing 0.1% formic acid and acetonitrile, at 30°C. After measuring the concentrations of the LDD1937 and LDD1940, standard methods were used to calculate the pharmacokinetic parameters using a non-compartmental analysis (WinNonlin 2.1; […] Corp., Mountain View, CA, USA).

[7] = LDD1937, mice, 10 mg/kg intravenous
[8] = male, ICR, mouse, plasma, LDD1937, mice, 10 mg/kg intravenous
[9] = male, ICR, mouse, plasma, LDD1937, mice, 10 mg/kg oral

COC(=O)c1ccc2c(c1)/C(=C1/Nc3ccccc3/C1=N\OCCN1CCNCC1)C(=O)N2.Cl.Cl [LDD1937, methyl (2Z,3E)-2′-oxo-3-((2-(piperazin-1-yl)ethoxy)imino)-[2,3′-biindolinylidene]-5′-carboxylate dihydrochloride]
IC50 [1]: 523 ± 72.7 nM | enhancement of MV-4-11 activity compared to the initial compound 1 [2]: 40 fold | GI50 ([2]; 72 h, called IC50 in supplementary text): 1 ± 0.15 nM | GI50 ([2]; Table 2, 72 h, mean ± S.D.): 1.2 ± 0.2 nM | GI50 [3]: 1100 ± 140 nM | GI50 [4]: 2140 ± 160 nM | G0/G1 Percent ([5]; 10 nM): 54.4% | Sub-G1 Percent ([5]; 100 nM): 31.3% | CLNR [6, 7]: 83.6 ± 9.81 mL/min/kg | GI24 h (total amount recovered from the gastrointestinal tract at 24 h) [6, 7]: 0.336 ± 0.0235 % of dose | Ae0–24 h (total amount excreted in 24-h urine) ([6]; LDD1937, mice, 10 mg/kg intravenous, 10 mg/kg): 0.283 % of dose and 0.283 ± 0.0252 % of dose | Ae0–24 h ([6]; LDD1937, mice, 10 mg/kg oral): 0.213 ± 0.0163 % of dose | GI24 h ([6]; LDD1937, mice, 10 mg/kg oral, 10 mg/kg): 1.67 % of dose and 1.67 ± 1.92 % of dose | concentration at 10 h ([6]; male, ICR, mouse, plasma, 10 h after 10 mg/kg intravenous dosing, mice, read-out: plasma level): 30 ng/mL | MRT [6, 8]: 2.77 h | clearance [6, 8]: 83.6 ± 9.81 mL/min/kg | AUC [6, 8]: 2000 ng·h/mL | half-life [6, 8]: 2.9 ± 0.47 h | Vd ([6]; male, ICR, mouse, plasma, LDD1937, mice, 10 mg/kg intravenous, read-out: Vss): 14.1 ± 4.31 L/kg | bioavailability [6, 9]: 1.43% | AUC [6, 9]: 29.8 ng·h/mL | Cmax ([6]; male, ICR, mouse, plasma, LDD1937, mice, 10 mg/kg oral, read-out: Cmax): 23.3 ± 26.2 ng/mL | half-life [6, 9]: 1.72 ± 0.542 h | Tmax ([6]; male, ICR, mouse, plasma, LDD1937, mice, 10 mg/kg oral, read-out: Tmax (converted)): 0.5 h | plasma concentration reached ([6]; single dose 10 mg/kg intravenous, mice): 2700 ng/mL
